For one series, the target named is T1, UGT2B17 (Homo sapiens, UniProt O75795).
T1 sequence (O75795 24-530): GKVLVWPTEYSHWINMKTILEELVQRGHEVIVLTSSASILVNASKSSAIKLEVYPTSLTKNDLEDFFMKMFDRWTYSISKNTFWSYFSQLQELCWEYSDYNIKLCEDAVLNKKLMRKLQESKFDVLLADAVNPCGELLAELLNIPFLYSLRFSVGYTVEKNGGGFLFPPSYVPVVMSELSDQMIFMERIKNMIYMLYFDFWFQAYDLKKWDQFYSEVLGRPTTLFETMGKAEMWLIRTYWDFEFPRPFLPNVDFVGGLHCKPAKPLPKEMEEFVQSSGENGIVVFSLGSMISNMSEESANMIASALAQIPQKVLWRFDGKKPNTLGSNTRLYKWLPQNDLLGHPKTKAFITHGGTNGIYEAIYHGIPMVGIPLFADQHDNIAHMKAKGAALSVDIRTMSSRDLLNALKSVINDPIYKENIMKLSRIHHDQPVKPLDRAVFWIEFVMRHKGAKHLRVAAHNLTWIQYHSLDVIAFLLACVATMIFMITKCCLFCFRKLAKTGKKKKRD
The series can be described thus: Inhibition of recombinant UGT2B17 activity (4-MU glucuronidation). As for the experimental part: (§1) A panel of recombinant human UGT supersomes (UGT1A1, UGT1A3, UGT1A4, UGT1A6, UGT1A7, UGT1A8, UGT1A9, UGT1A10, UGT2B4, UGT2B7, UGT2B15, and UGT2B17) expressed in baculovirus-infected insect cells were purchased from BD Gentest Corp. (Woburn, MA, USA).
(§2) 4-MU, a nonselective substrate of UGTs, was used as probe substrate for all UGTs except UGT1A4. Incubations with each individual enzyme were conducted using conditions previously described. There was a 5 min preincubation step at 37°C before the reaction was started by addition of UDPGA. The incubation mixtures were then centrifuged at 20,500 ×g for 15 min to obtain the supernatant. Aliquots (20 μL) were then analyzed by HPLC. The HPLC system (SHIMADZU, Kyoto, Japan) consisted of an SCL-10A system controller, two LC-10AT pumps, a SIL-10A auto injector, and a SPD-10AVP UV detector. Chromatographic separation was achieved using a Kromasil ODS column (4.6 × 150 mm I.D., 5 μm particle size) at a flow rate of 1 mL/min and UV detection at 316 nm. The mobile phase consisted of 10 mM KH2PO4, pH 2.7 (A) and acetonitrile (B). The following gradient was applied at a flow rate of 1 mL/min: 0–4 min 80% A and 20% B, 4.1–8 min 50% A and 50% B, 8.1–12 min, 30% A and 70% B. All experiments were performed in two independent experiments in duplicate.
(§3) A typical incubation mixture contained recombinant human UGTs, 5 mM MgCl2, 5 mM UDPGA, 50 μg/mg protein alamethicin, 50 mM Tris-HCl buffer (pH 7.4), and various probe substrates of UGTs in the absence or presence of different concentrations of inhibitors. […] The final concentration of DMSO in the incubation system was 1% (v/v). […]
(§4) Inhibition data from experiments were graphically represented by Dixon plots. K i values were calculated by nonlinear regression using the equations for competitive inhibition (1), noncompetitive inhibition (2), or mixed inhibition (3), [22] […] The type of inhibition was determined from the enzyme inhibition models. Goodness of fit to kinetic and inhibition models was assessed from the F statistic, r ^2 values, parameter standard error estimates, and 95% confidence intervals. […]

Series [1] can be described thus: Calculation of possible maximum concentrations in gut lumen. Set-up: species or system human. As to conditions: calculated, after a single oral administration of Epimedium pubescens decoction. The text has this:
The reported V L was 1.65 L/70 kg. […] Here we arbitrarily assumed the ratio in rat equaled to that in human blood, and the values of their oral bioavailability were consistent.

For the next series, the target named is T2, UGT1A6 (Homo sapiens, UniProt P19224).
T2 sequence (P19224 27-532): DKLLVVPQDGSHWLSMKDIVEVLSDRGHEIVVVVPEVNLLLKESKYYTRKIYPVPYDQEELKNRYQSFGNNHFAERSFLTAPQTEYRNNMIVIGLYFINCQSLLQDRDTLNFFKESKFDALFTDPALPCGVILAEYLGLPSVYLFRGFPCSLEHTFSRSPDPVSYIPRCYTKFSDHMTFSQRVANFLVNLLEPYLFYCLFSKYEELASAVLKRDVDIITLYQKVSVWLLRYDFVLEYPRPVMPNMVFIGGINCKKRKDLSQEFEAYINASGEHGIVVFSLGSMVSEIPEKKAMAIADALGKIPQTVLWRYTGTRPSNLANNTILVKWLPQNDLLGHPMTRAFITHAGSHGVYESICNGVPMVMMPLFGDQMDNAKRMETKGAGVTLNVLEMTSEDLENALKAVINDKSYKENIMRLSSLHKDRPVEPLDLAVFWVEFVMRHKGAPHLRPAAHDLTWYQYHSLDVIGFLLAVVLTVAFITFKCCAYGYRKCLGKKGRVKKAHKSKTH
The series is described as follows: Inhibition of recombinant UGT1A6 activity (4-MU glucuronidation). As for the experimental part: as §1, §2, §3, §4

The term IC50 denotes the point on the concentration scale where inhibition reaches its midpoint. In the case of `COc1ccc(-c2oc3c(CC=C(C)C)c(O[C@@H]4O[C@H](CO)[C@@H](O)[C@H](O)[C@H]4O)cc(O)c3c(=O)c2O[C@@H]2O[C@@H](C)[C@H](O)[C@@H](O)[C@H]2O)cc1` [Icariin], the IC50 at UGT2B17 and at UGT1A6 was more than 100 µM in each case. Besides, the “Possible maximum concentration in human gut lumen” value (“Possible maximum concentration” below) in series [1] is given as “about 9.9 μM”.

With `COc1ccc(-c2oc3c(CC=C(C)C)c(O[C@@H]4O[C@H](CO)[C@@H](O)[C@H](O)[C@H]4O)cc(O)c3c(=O)c2O)cc1` [Icariside I], the concentration for half-maximal inhibition (IC50) on UGT2B17 and at UGT1A6 was more than 100 µM in each case. The “Possible maximum concentration” value in series [1] is approximately 0.2 µM.

Regarding `COc1ccc(-c2oc3c(CC=C(C)C)c(O)cc(O)c3c(=O)c2O)cc1` [Icaritin], the IC50 at UGT2B17 and at UGT1A6 was more than 100 µM each time. For the same compound, the “Possible maximum concentration” value in series [1] was approximately 3.8 µM.

Source of the values: paper PMC3479967 (Evidence-based Complementary and Alternative Medicine : eCAM, 2012).
